For the assay, the system named is P388 leukemia ip, CD2F1 mice, survival T/C. The experiment in a line: NCI In Vivo Anticancer Drug Screen. Data for tumor model P388 Leukemia (intraperitoneal) in CD2F1 (CDF1) mice. The following applies: endpoint: median survival time, higher = longer survival. How it is done: The antitumor activity of compounds was measured in mice bearing transplantable tumors. Survival or tumor size were measured and the results are expressed as the measurement made in the treated group (T) divided by the measurement made in the vehicle treated control group (C). The tumor model used in this assay is P388 Leukemia (intraperitoneal) in CD2F1 (CDF1) mice

Where [1] appears, read: dose: 7.5 mg/kg/injection, schedule: Q01DX005 (ip), vehicle: saline with Tween-80.
Where [2] appears, read: dose: 15.0 mg/kg/injection, schedule: Q01DX005 (ip), vehicle: saline with Tween-80.
[3] abbreviates: dose: 25.0 mg/kg/injection, schedule: Q01DX009 (ip), vehicle: saline with Tween-80.
[4] abbreviates: dose: 50.0 mg/kg/injection, schedule: Q01DX009 (ip), vehicle: saline with Tween-80.
Setting [5] is: dose: 100.0 mg/kg/injection, schedule: Q01DX009 (ip), vehicle: saline with Tween-80.
[6] abbreviates: dose: 200.0 mg/kg/injection, schedule: Q01DX009 (ip), vehicle: saline with Tween-80.
Setting [7] is: dose: 30.0 mg/kg/injection, schedule: Q01DX005 (ip), vehicle: saline with Tween-80.
Where [8] appears, read: dose: 60.0 mg/kg/injection, schedule: Q01DX005 (ip), vehicle: saline with Tween-80.
The mark [9] stands for this setting: dose: 120.0 mg/kg/injection, schedule: Q01DX005 (ip), vehicle: saline with Tween-80.
The mark [10] stands for this setting: dose: 240.0 mg/kg/injection, schedule: Q01DX005 (ip), vehicle: saline with Tween-80.
Setting [11] is: dose: 100.0 mg/kg/injection, schedule: Q04DX003 (ip), vehicle: saline with Tween-80.
Where [12] appears, read: dose: 200.0 mg/kg/injection, schedule: Q04DX003 (ip), vehicle: saline with Tween-80.
The mark [13] stands for this setting: dose: 400.0 mg/kg/injection, schedule: Q04DX003 (ip), vehicle: saline with Tween-80.
The mark [14] stands for this setting: dose: 50.0 mg/kg/injection, schedule: Q01DX005 (ip), vehicle: Klucel (hydroxypropylcellulose) (HPC).
[15] abbreviates: dose: 100.0 mg/kg/injection, schedule: Q01DX005 (ip), vehicle: Klucel (hydroxypropylcellulose) (HPC).
The mark [16] stands for this setting: dose: 200.0 mg/kg/injection, schedule: Q01DX005 (ip), vehicle: Klucel (hydroxypropylcellulose) (HPC).

Several values for one entry are separate records, joined by “and”; a condition that tells them apart may be missing. Equal values may be shown once. Toxic doses and inconclusive results are not listed.

With `C[n+]1ccc2ccccc2c1SC1CCC2CC3CC2C1C3` (stereo not given), the T/C by setting is: under setting [1], 106 % of control; under setting [2], 110 % of control.
As to `Cc1csc(C)[n+]1C`, the T/C was 100 % of control (dose: 25.0 mg/kg/injection, schedule: Q01DX009 (ip), vehicle: saline sonified); 100 % of control (dose: 50.0 mg/kg/injection, schedule: Q01DX009 (ip), vehicle: saline sonified); 90 % of control (dose: 100.0 mg/kg/injection, schedule: Q01DX009 (ip), vehicle: saline sonified).
`NC(N)=N/N=C1\C/C(=N\N=C(N)N)c2ccccc21`: the T/C was 99 % of control (dose: 6.25 mg/kg/injection, schedule: Q01DX009 (ip), vehicle: saline with Tween-80); 97 % of control (dose: 12.5 mg/kg/injection, schedule: Q01DX009 (ip), vehicle: saline with Tween-80); 107 % of control (dose: 25.0 mg/kg/injection, schedule: Q01DX001 (ip), vehicle: saline with Tween-80); 91 % of control under setting [3]; 100 % of control (dose: 50.0 mg/kg/injection, schedule: Q01DX001 (ip), vehicle: saline with Tween-80).
`O=C1C(N=Nc2ccccc2)Sc2nc3ccccc3n21` (stereo not given): the T/C reads like this: (dose: 60.0 mg/kg/injection, schedule: Q01DX005 (ip), vehicle: Klucel (hydroxypropylcellulose) (HPC)) 90 % of control; (dose: 120.0 mg/kg/injection, schedule: Q01DX005 (ip), vehicle: Klucel (hydroxypropylcellulose) (HPC)) 86 % of control.
In the case of `N#CC1CCCCCc2c1[nH]c1ccccc21` (stereo not given), the T/C is 97 % of control under setting [3], 103 % of control under setting [4] and 103 % of control under setting [5].
`COC1=CC(=[O+]C)/C(=C/c2c(OC)cc(OC)cc2OC)C(OC)=C1`: the T/C reads like this: under setting [4], 94 % of control; under setting [5], 86 % of control; under setting [6], 86 % of control.
Consider `O=C1C(c2cnccn2)=C(O)c2ccccc21`, for which the T/C reads like this: under setting [2], 91 % of control; under setting [7], 97 % of control; under setting [8], 100 % of control and 90 % of control.
Take `O=C(CC1=NC2NN(c3ccccc3)C(=O)C2=C1CC(=O)c1ccc([N+](=O)[O-])cc1)c1ccc([N+](=O)[O-])cc1` (stereo not given): the T/C is, setting by setting: under setting [8], 99 % of control; under setting [9], 105 % of control; under setting [10], 104 % of control.
With `CCN(CC)c1ccc2c(cc1=O)[C@@H](NC(C)=O)CCc1cc(OC)c(OC)c(OC)c1-2`, the T/C by setting is: (dose: 0.39 mg/kg/injection, schedule: Q01DX009 (ip), vehicle: Klucel (hydroxypropylcellulose) (HPC)) 103 % of control and 107 % of control and 120 % of control; (dose: 3.13 mg/kg/injection, schedule: Q01DX009 (ip), vehicle: Klucel (hydroxypropylcellulose) (HPC)) 181 % of control.
With `Cc1cc2c(c(C#N)c1C)NC(=O)CN=C2c1ccccc1F`, the T/C reads like this: under setting [8], 96 % of control; under setting [9], 98 % of control; under setting [10], 95 % of control.
As for `COc1ccc(/C=N/NC(N)=S)cc1`, the T/C runs as follows: under setting [5], 109 % of control; under setting [11], 100 % of control; under setting [6], 100 % of control; under setting [12], 113 % of control; (dose: 400.0 mg/kg/injection, schedule: Q01DX009 (ip), vehicle: saline with Tween-80) 109 % of control; under setting [13], 109 % of control.
As to `CC(C)(OC(=O)NC(CC(N)=O)C(=O)O)c1ccc(-c2ccccc2)cc1` (stereo not given), the T/C under setting [14] was 98 % of control, the T/C under setting [15] was 104 % of control and the T/C under setting [16] was 90 % of control.
For the compound `S=C1SC2=NCCN2C2=NCCN12`, the T/C reads like this: (dose: 11.25 mg/kg/injection, schedule: Q01DX001 (ip), vehicle: Klucel (hydroxypropylcellulose) (HPC)) 96 % of control; (dose: 22.5 mg/kg/injection, schedule: Q01DX001 (ip), vehicle: Klucel (hydroxypropylcellulose) (HPC)) 102 % of control; (dose: 45.0 mg/kg/injection, schedule: Q01DX001 (ip), vehicle: Klucel (hydroxypropylcellulose) (HPC)) 100 % of control.
As for `CC12CC3CC(C)(C1)CC(SC(=N)N)(C3)C2`, the T/C was 105 % of control under setting [1], 104 % of control under setting [2] and 106 % of control under setting [7].
As for `NC(=O)NC(C/[N+]([O-])=N/O)C(=O)O` (stereo not given), the T/C reads like this: (dose: 12.5 mg/kg/injection, schedule: Q01DX009 (ip), vehicle: water) 100 % of control; (dose: 25.0 mg/kg/injection, schedule: Q01DX009 (ip), vehicle: water) 96 % of control; (dose: 50.0 mg/kg/injection, schedule: Q01DX009 (ip), vehicle: water) 98 % of control; (dose: 100.0 mg/kg/injection, schedule: Q01DX009 (ip), vehicle: water) 98 % of control.
On to `c1ccc2nc(N3CCCC3)c(N3CCCCCC3)nc2c1`, for which the T/C is 100 % of control under setting [14], 100 % of control under setting [15] and 107 % of control under setting [16].
`CCC1OCN2CCCCC12` (stereo not given): the T/C (dose: 12.5 mg/kg/injection, schedule: Q01DX005 (ip), vehicle: saline) is 100 % of control and 105 % of control; the T/C (dose: 25.0 mg/kg/injection, schedule: Q01DX005 (ip), vehicle: saline) is 107 % of control and 108 % of control; the T/C (dose: 50.0 mg/kg/injection, schedule: Q01DX005 (ip), vehicle: saline) was 105 % of control and 107 % of control and 108 % of control; the T/C (dose: 100.0 mg/kg/injection, schedule: Q01DX005 (ip), vehicle: saline) is 108 % of control and 110 % of control.
With `C1CN(CC2CCC(CN3CCOCC3)O2)CCO1` (stereo not given), the T/C was 96 % of control (dose: 3.12 mg/kg/injection, schedule: Q01DX005 (ip), vehicle: Klucel (hydroxypropylcellulose) (HPC)); 97 % of control (dose: 6.25 mg/kg/injection, schedule: Q01DX005 (ip), vehicle: Klucel (hydroxypropylcellulose) (HPC)); 100 % of control (dose: 12.5 mg/kg/injection, schedule: Q01DX005 (ip), vehicle: Klucel (hydroxypropylcellulose) (HPC)); 114 % of control (dose: 25.0 mg/kg/injection, schedule: Q01DX005 (ip), vehicle: Klucel (hydroxypropylcellulose) (HPC)); 96 % of control under setting [14].
For the compound `Cc1ccc(S(=O)(=O)N/N=C/c2c(C)noc2C)cc1`, the T/C was 101 % of control (dose: 50.0 mg/kg/injection, schedule: Q01DX009 (ip), vehicle: Klucel (hydroxypropylcellulose) (HPC)); 95 % of control (dose: 100.0 mg/kg/injection, schedule: Q01DX009 (ip), vehicle: Klucel (hydroxypropylcellulose) (HPC)); 95 % of control (dose: 200.0 mg/kg/injection, schedule: Q01DX009 (ip), vehicle: Klucel (hydroxypropylcellulose) (HPC)).
With `O=C1Nc2ccc(Br)cc2/C1=N/n1c(-c2ccccc2)nc2ccccc2c1=O`, the T/C by setting is: under setting [14], 86 % of control; under setting [15], 87 % of control; under setting [16], 100 % of control.
For `NCCc1ccccc1`, the T/C by setting is: (dose: 50.0 mg/kg/injection, schedule: Q01DX009 (ip), vehicle: saline) 104 % of control; (dose: 100.0 mg/kg/injection, schedule: Q01DX009 (ip), vehicle: saline) 86 % of control.
For `CC(O)(Cc1ccccc1)c1ccccc1` (stereo not given), the T/C under setting [11] was 100 % of control, the T/C under setting [12] is 104 % of control and the T/C under setting [13] is 109 % of control.
In the case of `O=C(NCCN1CCN2Cc3[nH]c4ccccc4c3CC2C1)c1ccc([N+](=O)[O-])cc1` (stereo not given), the T/C was 96 % of control (dose: 100.0 mg/kg/injection, schedule: Q04DX002 (ip), vehicle: saline with Tween-80); 87 % of control (dose: 200.0 mg/kg/injection, schedule: Q04DX002 (ip), vehicle: saline with Tween-80); 86 % of control (dose: 400.0 mg/kg/injection, schedule: Q04DX002 (ip), vehicle: saline with Tween-80).
Turning to `CC(=O)NC(CSC(c1ccccc1)c1ccccc1)C(C)=O` (stereo not given), the T/C runs as follows: under setting [11], 103 % of control; under setting [12], 106 % of control; under setting [13], 113 % of control.
`O=C(N/N=C/c1cc(Cl)cc(Cl)c1[O-])c1ccccc1.O=C(N/N=C/c1cc(Cl)cc(Cl)c1[O-])c1ccccc1.[Mn+2]`: the T/C runs as follows: (dose: 100.0 mg/kg/injection, schedule: Q01DX001 (ip), vehicle: saline with Tween-80) 98 % of control; (dose: 200.0 mg/kg/injection, schedule: Q01DX001 (ip), vehicle: saline with Tween-80) 99 % of control; (dose: 400.0 mg/kg/injection, schedule: Q01DX001 (ip), vehicle: saline with Tween-80) 105 % of control.

The values above are taken from PubChem BioAssay AID330 (DTP/NCI, 2004).
